Source: patent US12292437B2, “Fluorescence histo-tomography (FHT) systems and methods” (Emit Imaging, Inc., priority 2015, dated 2025)

Details: rat, in vivo
Description: To address some of these potential drawbacks, as described above, high resolution white light and multispectral (700 and 800 nm) fluorescence images may be captured off the block after every pass of the micro- or macrotome blade using an intraoperative fluorescence imaging system, thus vastly improving the amount of information captured throughout the specimen and decreasing total acquisition time. Generally, the process of fluorescent and high resolution white light data collection and subsequent co-registration and/or three-dimensional reconstruction, is referred to herein as cryofluorescence tomography or FHT.
To investigate the ability of FHT to study the physiology of the brain, XenoLight RediJect 2-Deoxy-D-glucose (2-DG, PerkinElmer, 750 nm excitation), a fluorescent glucose metabolism tracer, was injected into the intrathecal space of a rat. After 1.5 hours of distribution, the animal was sacrificed, the brain tissue excised, and the sample was cryopresevered in OCT. With each pass of the microtome blade (25 micron spacing), a high resolution white light and fluorescent image was acquired.
Further, to study the anatomy of ventricles and subarachnoid space, a fluorescent zwitterionic compound ZW800-1 (Curadel, LLC) was injected into the rat intrathecal space. This compound is not expected to cross into the brain parenchyma due to its chemical properties. […]

## XenoLight RediJect 2-Deoxy-D-glucose [2-DG]
  fluorescence signal in brain parenchyma: taken up in the brain parenchyma
